{
  "source": "patent US20240122941A1",
  "about": "“THERAPY BASED ON SYNTHETIC LETHALITY IN SWI/SNF COMPLEX-DYSFUNCTION CANCER” (NATIONAL CANCER CENTER, priority 2020, published 2024)",
  "key": {"[1]": {"test_system": "H23 cells (pulmonary adenocarcinoma derived, SMARCA2/A4 deficient)", "assay": "Cell growth suppression experiment (CellTiter-Glo), H23 cells;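 also: compounds tested as CBP/P300 agents, added one day after plating in 96-well plates with DMEM-F12 plus 10% fetal bovine serum, 0.1% DMSO final, luminescent viability read-out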", "assay_type": "cell-based", "details": "cultured for 6 days, CellTiter-Glo"}, "[2]": {"test_system": "DMS114 cells (small cell lung cancer derived, SMARCA2/A4 deficient)", "assay": "Cell growth suppression experiment (CellTiter-Glo), DMS114 cells", "assay_type": "cell-based", "details": "DMS114 cells, cultured for 6 days, CellTiter-Glo"}, "[3]": {"test_system": "TOV112D cells (small cell ovarian cancer derived, SMARCA2/A4 deficient)", "assay": "Cell growth suppression experiment (CellTiter-Glo), TOV112D cells;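 also: luminescent viability read-out of TOV112D cells grown in DMEM-F12 with 10% fetal bovine serum, compound exposure starting one day after plating, DMSO at 0.1% final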", "assay_type": "cell-based", "details": "cultured for 6 days, CellTiter-Glo"}, "[4]": {"test_system": "H460 cells (pulmonary adenocarcinoma derived, SMARCA2/A4 wild-type)", "assay": "Cell growth suppression experiment (CellTiter-Glo), H460 cells;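 also: luminescent viability read-out, compound added one day after seeding at 0.1% final DMSO, cells grown in DMEM-F12 with 10% fetal bovine serum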", "assay_type": "cell-based", "details": "for IC50: cultured for 6 days, CellTiter-Glo"}, "[5]": {"test_system": "H1693 cells (pulmonary adenocarcinoma derived, SMARCA4 deficient)", "assay": "Cell growth suppression experiment (CellTiter-Glo), H1693 cells", "assay_type": "cell-based", "details": "Homo sapiens, NCI-H1693, 72 h, cultured for 3 days", "experimental": "(§1) Cytotoxic activity of a CBP/P300 inhibitor on SMARCA4 deficient cells, i.e., H1693 cells (pulmonary adenocarcinoma derived) and H1819 cells (pulmonary adenocarcinoma derived), and SMARCA4 wild-type cells, i.e., H647 cells.\n(§2) H1693 cells, H1819 cells, and H647 cells were obtained from the ATCC. The H1693 cells and H647 cells were cultured under 5% CO 2 conditions at 37° C. in a 10% fetal bovine serum and 1% penicillin/streptomycin-containing RPMI1640 medium. H1819 cells were cultured under 5% CO2 conditions at 37° C. in a 5% fetal bovine serum and 1% penicillin/streptomycin-containing RPMI1640 medium.\n(§3) A 384-well plate was seeded with 500 cells per well. […] After completion of culture, the cell survival rate was measured using CellTiter-Glo Luminescent Cell Viability Assay (Promega, G7570)."}, "[6]": {"test_system": "H1819 cells (pulmonary adenocarcinoma derived, SMARCA4 deficient)", "assay": "Cell growth suppression experiment (CellTiter-Glo), H1819 cells", "assay_type": "cell-based", "details": "NCI-H1819, 72 h, cultured for 3 days", "experimental": "as §1, §2, §3"}, "[7]": {"test_system": "H647 cells (SMARCA4 wild-type)", "assay": "Cell growth suppression experiment (CellTiter-Glo), H647 cells", "assay_type": "cell-based", "experimental": "as §1, §2, §3"}, "[8]": {"test_system": "SMARCA2/A4 deficient cells, i.e., H23 cells, DMS114 cells, and TOV112D cells", "assay": "Cell growth suppression experiment, SMARCA2/A4 deficient cells (summary of Example 8)", "assay_type": "cell-based", "details": "H23, DMS114 and TOV112D cells versus H460 cells; result in words", "experimental": "Cytotoxic activity of a CBP/P300 on SMARCA2/A4 deficient cells, i.e., H23 cells (pulmonary adenocarcinoma derived), TOV112D cells (small cell ovarian cancer derived), and DMS114 cells (small cell lung cancer derived), and SMARCA2/A4 wild-type cells, i.e., H460 cells (pulmonary adenocarcinoma derived) was compared.\nH23 cells, TOV112D cells, DMS114 cells, and H460 cells were cultured under 5% CO2 conditions at 37° C. in a 10% fetal bovine serum and 1% penicillin/streptomycin-containing DMEM-F12 medium.\nCells were seed on a 96-well plate at 250 to 500 cells per well. […] After completion of culture, the cell survival rate was measured using CellTiter-Glo Luminescent Cell Viability Assay (Promega, G770)."}, "[9]": {"test_system": "ARID1 deficient cancer cell group versus ARID1 wild-type cell group", "assay": "Experiment comparing sensitivity depending on the presence/absence of ARID1", "assay_type": "cell-based", "details": "6 days culture, CellTiter-Glo, FIG. 12; result in words", "description": "Cytotoxic activity of a CBP/P300 inhibitor on ARID1 deficient cancer cells, i.e., A2780 cells (ovarian cancer derived), RMG-V cells (ovarian cancer derived), TOV21G cells (ovarian cancer derived), and OVISE cells (ovarian cancer derived), and ARID1 wild-type cells, i.e., H1048 cells, H460 cells, 786-O cells, H2228 cells, H2009 cells, and H358 cells, was compared."}, "[10]": {"test_system": "SMARCA4 deficient cells, i.e., H1693 cells and H1819 cells", "assay": "Cell growth suppression experiment, SMARCA4 deficient cells (summary of Example 11)", "assay_type": "cell-based", "details": "result in words", "experimental": "as §1, §2, §3"}, "[11]": {"test_system": "JMU-RTK-2 cells (malignant rhabdoid tumor derived, SMARCB1 deficient)", "assay": "Selectivity in cell growth suppression, JMU-RTK-2 cells", "details": "read-out: JMU-RTK-2 IC50"}, "[12]": {"test_system": "G-401 cells (malignant rhabdoid tumor derived, SMARCB1 deficient)", "assay": "Cell growth suppression experiment (CellTiter-Glo), G-401 cells", "details": "read-out: IC50 G-401"}, "[13]": {"test_system": "786-O cells (renal cancer derived, SMARCB1 wild-type)", "assay": "Cell growth suppression experiment (CellTiter-Glo), 786-O cells", "details": "for IC50: read-out: IC50 786-O"}, "[14]": {"test_system": "JMU-RTK-2+SMARCB1 cells (JMU-RTK-2 cells overexpressing SMARCB1)", "assay": "Selectivity in cell growth suppression, JMU-RTK-2+SMARCB1 cells", "details": "read-out: JMU-RTK-2 + SMARCB1 IC50"}, "[15]": {"test_system": "CHLA-06-ATRT cells (atypical teratoid/rhabdoid tumor derived, SMARCB1 deficient)", "assay": "Cell growth suppression experiment (CellTiter-Glo), CHLA-06-ATRT cells", "details": "72 h, read-out: IC50 CHLA-06-ATRT"}, "[16]": {"test_system": "SMARCB1 deficient cells, i.e., G-401 cells, G-402 cells, and CHLA-06-ATRT cells", "assay": "Cell growth suppression experiment, SMARCB1 deficient cells (summary of Example 1)", "details": "G-401, G-402 and CHLA-06-ATRT cells versus 786-O cells; result in words"}, "[17]": {"test_system": "SMARCB1 deficient cell group versus SMARCB1 wild-type cell group", "assay": "Experiment comparing sensitivity depending on the presence/absence of SMARCB1", "assay_type": "cell-based", "details": "6 days culture, CellTiter-Glo, FIG. 3; result in words", "description": "Cytotoxic activity of a CBP/P300 inhibitor on SMARCB1 deficient cells, i.e., G-401 cells (malignant rhabdoid tumor derived), G-402 cells (malignant rhabdoid tumor derived), JMU-RTK-2 cells (malignant rhabdoid tumor derived), and HS-EU-1 cells (epithelioid sarcoma derived), and SMARCB1 wild-type cells, i.e., 786-O cells (renal cancer derived), VMRC-RCZ cells (renal cancer derived), Caki-1 cells (renal cancer derived), H446 cells (lung cancer derived), ES2 cells (ovarian cancer derived), H460 cells (lung cancer derived), H2228 cells (lung cancer derived), HEK293T cells (normal kidney tissue derived), and H358 cells (lung cancer derived) was compared."}, "[18]": {"test_system": "G-402 cells (malignant rhabdoid tumor derived, SMARCB1 deficient)", "assay": "Cell growth suppression experiment (CellTiter-Glo), G-402 cells", "details": "Homo sapiens, G-402, 72 h, read-out: IC50 G-402"}},
  "note": "Where two headings read alike, the source gives them in different places.",
  "data": [
    {"compound": "CNC(=O)Cn1cc(-c2ccc3c(c2)C(F)CC32NC(=O)N(CC(=O)N(Cc3ccc(F)cc3)[C@@H](C)C(F)(F)F)C2=O)cn1", "note": "(single isomer, unassigned) [Compound 4]", "values": [
      {"measurement": "IC50", "setting": "[1]", "value": 0.248, "unit": "µM"},
      {"measurement": "IC50", "setting": "[2]", "value": 0.0374, "unit": "µM"},
      {"measurement": "IC50", "setting": "[3]", "value": 0.142, "unit": "µM"},
      {"measurement": "cell survival rate (%) at treatment with 10 μM, H460", "setting": "[4]; 10 μM, 6 days", "value": 78, "unit": "%"},
      {"measurement": "IC50", "setting": "[4]", "value": "> 10", "unit": "µM"},
      {"measurement": "IC50", "setting": "[5]", "value": 0.129, "unit": "µM"},
      {"measurement": "IC50", "setting": "[6]", "value": 5.33, "unit": "µM"},
      {"measurement": "cell survival rate (%) at treatment with 10 μM, H647", "setting": "[7]; H647 cells, 10 μM, 3 days", "value": 60, "unit": "%"},
      {"measurement": "IC50", "setting": "[7]; Homo sapiens, NCI-H647, 72 h, H647 cells, cultured for 3 days, CellTiter-Glo", "value": "> 10", "unit": "µM"},
      {"measurement": "cell growth suppression effect on SMARCA4 expressing H647 cells", "setting": "[7]; result in words", "value": "hardly any cell growth suppression effect"},
      {"measurement": "cell growth suppression effect on SMARCA2/A4 deficient cells", "setting": "[8]", "value": "particularly selective and potent cell growth suppression effect"},
      {"measurement": "IC50 value for the ARID1 deficient cancer cell group compared with the ARID1 wild-type cell group", "setting": "[9]", "value": "less than the IC50 value for the ARID1 wild-type cell group"},
      {"measurement": "cell growth suppression effect on SMARCA4 deficient cells", "setting": "[10]", "value": "selective and potent cell growth suppression effect"},
      {"measurement": "IC50", "setting": "[11]; JMU-RTK-2 cells, cultured for 6 days, CellTiter-Glo", "value": 0.0099, "unit": "µM"},
      {"measurement": "IC50", "setting": "[12]; G-401 cells, cultured for 3 days, CellTiter-Glo cell survival", "value": 0.018, "unit": "µM"},
      {"measurement": "cell survival rate (%) at treatment with 10 μM, 786-O", "setting": "[13]; 786-O cells, 10 μM (maximum treatment concentration), 3 days", "value": 93, "unit": "%"},
      {"measurement": "IC50", "setting": "[13]; 786-O cells, cultured for 3 days, CellTiter-Glo cell survival", "value": "> 10", "unit": "µM"},
      {"measurement": "IC50", "setting": "[14]; JMU-RTK-2+SMARCB1 cells, cultured for 6 days, CellTiter-Glo", "value": 1.4, "unit": "µM"},
      {"measurement": "IC50", "setting": "[15]", "value": 0.18, "unit": "µM"},
      {"measurement": "cell growth suppression effect on SMARCB1 deficient cells", "setting": "[16]", "value": "selective and potent Cell growth suppression effect"}
    ]},
    {"compound": "CNC(=O)Nc1ccc2c(c1)CC[C@]21OC(=O)N(CC(=O)N(Cc2ccc(F)cc2)[C@@H](C)C(F)(F)F)C1=O", "note": "[Compound 16]", "values": [
      {"measurement": "IC50", "setting": "[1]; Homo sapiens, NCI-H23, 144 h", "value": 0.867, "unit": "µM"},
      {"measurement": "IC50", "setting": "[2]; Homo sapiens, DMS-114, 144 h", "value": 0.28, "unit": "µM"},
      {"measurement": "IC50", "setting": "[3]; Homo sapiens, 144 h", "value": 0.435, "unit": "µM"},
      {"measurement": "viability at 10 µM", "setting": "[4]; Homo sapiens, NCI-H460, 144 h, 10 μM, 6 days, read-out: cell survival rate (%) at treatment with 10 μM, H460", "value": 62, "unit": "%"},
      {"measurement": "IC50", "setting": "[4]; Homo sapiens, NCI-H460, 144 h", "value": "> 10", "unit": "µM"},
      {"measurement": "IC50 value for the SMARCB1 deficient cell group compared with the SMARCB1 wild-type cell group", "setting": "[17]", "value": "less than the IC50 value for the SMARCB1 wild-type cell group"},
      {"measurement": "cell growth suppression effect on SMARCA2/A4 deficient cells", "setting": "[8]", "value": "particularly selective and potent cell growth suppression effect"},
      {"measurement": "IC50 value for the ARID1 deficient cancer cell group compared with the ARID1 wild-type cell group", "setting": "[9]", "value": "less than the IC50 value for the ARID1 wild-type cell group"},
      {"measurement": "IC50", "setting": "[11]; 144 h", "value": 0.13, "unit": "µM"},
      {"measurement": "IC50", "setting": "[12]; Homo sapiens, G-401, 72 h", "value": 0.35, "unit": "µM"},
      {"measurement": "IC50", "setting": "[18]", "value": 8.9, "unit": "µM"},
      {"measurement": "IC50", "setting": "[13]; Homo sapiens, 786-0, 72 h", "value": "> 10", "unit": "µM"},
      {"measurement": "viability at 10 µM", "setting": "[13]; Homo sapiens, 786-0, 72 h, read-out: cell survival rate (%) at treatment with 10 μM, 786-O", "value": 94, "unit": "%"},
      {"measurement": "IC50", "setting": "[14]; 144 h", "value": 13, "unit": "µM"},
      {"measurement": "cell growth suppression effect on SMARCB1 deficient cells", "setting": "[16]", "value": "selective and potent Cell growth suppression effect"}
    ]}
  ]
}
